Test system: Serum RLP-C
Experiment: 12-week placebo-controlled study (MARINE), serum RLP-C by immunoseparation assay, patients with fasting TG ≥500 mg/dL
Assay type: in vivo, human
Conditions: for Median Change from Baseline in RLP-C vs. Placebo: Hodges-Lehmann estimate; for Median Change from Baseline in RLP-C vs. Placebo / RLP-C Concentration End of Treatment: week 12; for RLP-C Concentration Change: median change from baseline to week 12; for RLP-C Concentration Baseline / RLP-C Concentration End of Treatment: median; for RLP-C Concentration Baseline: before treatment
Protocol: A multi-center, placebo-controlled randomized, double-blind, 12-week study with an open-label extension was performed to evaluate the efficacy and safety of AMR101 in patients with fasting triglyceride levels≥500 mg/dL. The primary objective of the study was to determine the efficacy of >96%, by weight of all fatty acids present, ethyl-EPA (“AMR101”) 2 g daily and 4 g daily, compared to placebo, in lowering fasting TG levels in patients with fasting TG levels≥500 mg/dL and ≤1500 mg/dL (≥5.65 mmol/L and ≤16.94 mmol/L). The population for this study was men and women (women of childbearing potential needed to be on contraception or practice abstinence) >18 years of age with a body mass index≤45 kg/m^2 who were not on lipid-altering therapy or were not currently on lipid-altering therapy. Patients currently on statin therapy (with or without ezetimibe) were evaluated by the investigator as to whether this therapy could be safely discontinued at screening, or if it should have been continued. If statin therapy (with or without ezetimibe) was to be continued, dose(s) must have been stable for ≥4 weeks prior to randomization. Patients taking non-statin, lipid-altering medications (niacin>200 mg/day, fibrates, fish oil, other products containing omega-3 fatty acids, or other herbal products or dietary supplements with potential lipid-altering effects), either alone or in combination with statin therapy (with or without ezetimibe), must have been able to safely discontinue non-statin, lipid-altering therapy at screening. Approximately 240 patients were randomized at approximately 50 centers in North America, South America, Central America, Europe, India, and South Africa. The study was a 58- to 60-week, Phase 3, multi-center study consisting of 3 study periods: (1) a 6- to 8-week screening period that included a diet and lifestyle stabilization and washout period and a TG qualifying period; (2) a 12-week, double-blind, randomized, placebo-controlled treatment period; and (3) a 40-week, open-label, extension period. After confirmation of qualifying fasting TG values, eligible patients entered a 12-week, randomized, double-blind treatment period. At Visit 4 (Week 0), patients were randomly assigned to one of the following treatment groups: • AMR101 2 g daily, • AMR101 4 g daily, or • Placebo. Eligible patients were randomly assigned at Visit 4 (Week 0) to orally receive AMR101 2 g daily, AMR101 4 g daily, or placebo for the 12-week double-blind treatment period. AMR101 was provided in 1 g liquid-filled, oblong, gelatin capsules. The matching placebo capsule was filled with light liquid paraffin and contained 0 g of AMR101. During the double-blind treatment period, patients took 2 capsules (AMR101 or matching placebo) in the morning and 2 in the evening for a total of 4 capsules per day. Patients in the AMR101 2 g/day treatment group received 1 AMR101 1 g capsule and 1 matching placebo capsule in the morning and in the evening. Patients in the AMR101 4 g/day treatment group received 2 AMR101 1 g capsules in the morning and evening. The primary efficacy variable for the double-blind treatment period was percent change in TG from baseline to Week 12 endpoint. […]

[1] = 2 g/day, Baseline TG >750 mg/dl
[2] = 2 g/day, Baseline TG ≤750 mg/dl
[3] = 4 g/day, Baseline TG >750 mg/dl
[4] = 4 g/day, Baseline TG ≤750 mg/dl

## CC/C=C\C/C=C\C/C=C\C/C=C\C/C=C\CCCC(=O)OCC [AMR101, ethyl-EPA]
2 g/day treatment group, 12 weeks
  RLP-C compared to placebo: reduced RLP-C compared to placebo
[1]
  Median Change from Baseline in RLP-C vs. Placebo: −25.4%
  RLP-C Concentration Change: −10.7%
  RLP-C Concentration Baseline: 66.0 mg/dL
  RLP-C Concentration End of Treatment: 65.0 mg/dL
[2]
  Median Change from Baseline in RLP-C vs. Placebo: −7.3%
  RLP-C Concentration Change: 18.2%
  RLP-C Concentration Baseline: 27.5 mg/dL
  RLP-C Concentration End of Treatment: 32.5 mg/dL
2 g/day, ITT
  Median Change from Baseline in RLP-C vs. Placebo: −14.9%
  RLP-C Concentration Change: 5.8%
  RLP-C Concentration Baseline: 43.0 mg/dL
  RLP-C Concentration End of Treatment: 44.5 mg/dL
2 g/day, No Statin Use
  Median Change from Baseline in RLP-C vs. Placebo: −8.5%
  RLP-C Concentration Change: 3.0%
  RLP-C Concentration Baseline: 45.0 mg/dL
  RLP-C Concentration End of Treatment: 44.5 mg/dL
2 g/day, With Statin Use
  Median Change from Baseline in RLP-C vs. Placebo: −41.6%
  RLP-C Concentration Change: 29.2%
  RLP-C Concentration Baseline: 31.5 mg/dL
  RLP-C Concentration End of Treatment: 46.5 mg/dL
4 g/day treatment group, 12 weeks, p=0.0041, stated as reduction
  median placebo-adjusted reductions in RLP-C: 29.8%
4 g/day treatment group, 12 weeks, stated as reduction
  reductions in RLP-C compared to baseline: 16.1%
[3]
  Median Change from Baseline in RLP-C vs. Placebo: −37.5%
  RLP-C Concentration Change: −25.4%
  RLP-C Concentration Baseline: 89.5 mg/dL
  RLP-C Concentration End of Treatment: 68.5 mg/dL
[4]
  Median Change from Baseline in RLP-C vs. Placebo: −26.1%
  RLP-C Concentration Change: −8.8%
  RLP-C Concentration Baseline: 34.0 mg/dL
  RLP-C Concentration End of Treatment: 29.0 mg/dL
4 g/day, ITT
  Median Change from Baseline in RLP-C vs. Placebo: −29.8%
  RLP-C Concentration Change: −16.1%
  RLP-C Concentration Baseline: 45.0 mg/dL
  RLP-C Concentration End of Treatment: 38.0 mg/dL
4 g/day, No Statin Use
  Median Change from Baseline in RLP-C vs. Placebo: −21.4%
  RLP-C Concentration Change: −16.6%
  RLP-C Concentration Baseline: 45.0 mg/dL
  RLP-C Concentration End of Treatment: 39.5 mg/dL
4 g/day, With Statin Use
  Median Change from Baseline in RLP-C vs. Placebo: −56.8%
  RLP-C Concentration Change: −16.1%
  RLP-C Concentration Baseline: 37.0 mg/dL
  RLP-C Concentration End of Treatment: 33.0 mg/dL

Source: patent US11052063B2, “Methods of reducing RLP-C” (Amarin Pharmaceuticals Ireland Limited, priority 2014, dated 2021)
